Source: patent publication US6376518B1, “Acyl derivatives of 4-demethylpenclomedine, use thereof and preparation thereof” (Southern Research Institute, priority 1999, dated 2002)
Where two headings read alike, the source gives them in different places.

Assays:
P388/BCNU leukemia = experiment: Antitumor activity against IP-implanted P388/BCNU leukemia in mice; conditions: P388/BCNU, Q1D × 1 (1); for MEDIAN DAY OF DEATH: dying mice only
P388/0 leukemia = conditions: P388/0, Q1D × 1 (1); for MEDIAN DAY OF DEATH: dying mice only
P388/CPA leukemia = experiment: Antitumor activity against IP-implanted P388/CPA leukemia in mice; assay type: in vivo, murine; conditions: P388/CPA, Q1D × 1 (1); for MEDIAN DAY OF DEATH: dying mice only
human MX-1 mammary tumor [1] = experiment: In vivo antitumor activity vs i.c.-implanted human MX-1 mammary tumor xenograft in athymic mice; conditions: ic MX-1, Days 1-5
human MX-1 mammary tumor [2] = experiment: In vivo antitumor activity vs s.c.-implanted human MX-1 mammary tumor xenograft in athymic mice; conditions: for T-C / Tumor-Free-Surv/Total: sc MX-1; for antitumor activity (in words): MX-1 implanted s.c. or i.c.
[3] = oral (gavage) 135 mg/kg/dose, Days 13-17
[4] = oral (gavage) 135 mg/kg/dose, Days 12-16

O=NN(CCCl)C(=O)NCCCl [BCNU (carmustine), carmustine]
50-DAY SURV/TOTAL (P388/BCNU leukemia; IP 20.0 mg/kg/dose): 0/6
% ILS (P388/BCNU leukemia; IP 20.0 mg/kg/dose): 0%
APPROX. NET LOG10 CHANGE IN TUMOR BURDEN AT END OF Rx (P388/BCNU leukemia; IP 20.0 mg/kg/dose): 0
MEDIAN DAY OF DEATH (P388/BCNU leukemia; IP 20.0 mg/kg/dose): 9.0
50-DAY SURV/TOTAL (P388/BCNU leukemia; IP 30.0 mg/kg/dose): 0/6
% ILS (P388/BCNU leukemia; IP 30.0 mg/kg/dose): −6%
APPROX. NET LOG10 CHANGE IN TUMOR BURDEN AT END OF Rx (P388/BCNU leukemia; IP 30.0 mg/kg/dose): +0.4
MEDIAN DAY OF DEATH (P388/BCNU leukemia; IP 30.0 mg/kg/dose): 8.5
50-DAY SURV/TOTAL (P388/0 leukemia; IP 20.0 mg/kg/dose): 3/6
APPROX. NET LOG10 CHANGE IN TUMOR BURDEN AT END OF Rx (P388/0 leukemia; IP 20.0 mg/kg/dose): ca −8.8
MEDIAN DAY OF DEATH (P388/0 leukemia; IP 20.0 mg/kg/dose): 27.0
50-DAY SURV/TOTAL (P388/0 leukemia; IP 30.0 mg/kg/dose): 6/6

O=P1(N(CCCl)CCCl)NCCCO1 (stereo not drawn) [CPA (cyclophosphamide), cyclophosphamide]
50-DAY SURV/TOTAL (P388/CPA leukemia; IP 175.0 mg/kg/dose): 0/6
% ILS (P388/CPA leukemia; IP 175.0 mg/kg/dose): +9%
APPROX. NET LOG10 CHANGE IN TUMOR BURDEN AT END OF Rx (P388/CPA leukemia; IP 175.0 mg/kg/dose): −0.6
MEDIAN DAY OF DEATH (P388/CPA leukemia; IP 175.0 mg/kg/dose): 12.0
50-DAY SURV/TOTAL (P388/CPA leukemia; IP 265.0 mg/kg/dose): 0/6
% ILS (P388/CPA leukemia; IP 265.0 mg/kg/dose): +27%
APPROX. NET LOG10 CHANGE IN TUMOR BURDEN AT END OF Rx (P388/CPA leukemia; IP 265.0 mg/kg/dose): −1.7
MEDIAN DAY OF DEATH (P388/CPA leukemia; IP 265.0 mg/kg/dose): 14.0
50-DAY SURV/TOTAL (P388/0 leukemia; IP 175.0 mg/kg/dose): 1/6
APPROX. NET LOG10 CHANGE IN TUMOR BURDEN AT END OF Rx (P388/0 leukemia; IP 175.0 mg/kg/dose): ca −8.8
MEDIAN DAY OF DEATH (P388/0 leukemia; IP 175.0 mg/kg/dose): 30.0
50-DAY SURV/TOTAL (P388/0 leukemia; IP 265.0 mg/kg/dose): 6/6

COc1nc(C(Cl)(Cl)Cl)c(Cl)c(OC(=O)COC(C)=O)c1Cl [DM-AA-PEN]
Median % ILS (dying mice only) (human MX-1 mammary tumor [1]; IP 135 mg/kg/dose): +67%
Tumor-Free-Surv/Total (human MX-1 mammary tumor [1]; IP 135 mg/kg/dose): 0/5
Tumor-Free-Surv/Total (human MX-1 mammary tumor [1]; oral (gavage) 135 mg/kg/dose): 2/5

C=CC(=O)Oc1c(Cl)c(OC)nc(C(Cl)(Cl)Cl)c1Cl [DM-AC-PEN]
T-C (human MX-1 mammary tumor [2]; IP 60 mg/kg/dose, Days 12-16): 30.0 days
Tumor-Free-Surv/Total (human MX-1 mammary tumor [2]; IP 60 mg/kg/dose, Days 12-16): 1/5
Median % ILS (dying mice only) (human MX-1 mammary tumor [1]; IP 60 mg/kg/dose): +55%

COc1nc(C(Cl)(Cl)Cl)c(Cl)c(OC(=O)c2ccccc2)c1Cl [DM-B-PEN]
antitumor activity (in words) (human MX-1 mammary tumor [2]; i.p. administration): high activity
antitumor activity (in words) (human MX-1 mammary tumor [2]; oral drug treatment): low antitumor activity
Tumor-Free-Surv/Total (human MX-1 mammary tumor [2]; IP 135 mg/kg/dose, Days 11-15): 5/5
T-C (human MX-1 mammary tumor [2]; [3]): -1.4 days
Tumor-Free-Surv/Total (human MX-1 mammary tumor [2]; [3]): 0/5
Median % ILS (dying mice only) (human MX-1 mammary tumor [1]; IP 135 mg/kg/dose): +84%
Median % ILS (dying mice only) (human MX-1 mammary tumor [1]; oral (gavage) 135 mg/kg/dose): +12%

COc1nc(C(Cl)(Cl)Cl)c(Cl)c(OC(=O)CBr)c1Cl [DM-BA-PEN]
T-C (human MX-1 mammary tumor [2]; IP 135 mg/kg/dose, Days 12-16): >41.0 days
Tumor-Free-Surv/Total (human MX-1 mammary tumor [2]; IP 135 mg/kg/dose, Days 12-16): 2/5

COc1nc(C(Cl)(Cl)Cl)c(Cl)c(OC(=O)CCl)c1Cl [DM-CA-PEN]
T-C (human MX-1 mammary tumor [2]; IP 60 mg/kg/dose, Days 12-16): >41.0 days
Tumor-Free-Surv/Total (human MX-1 mammary tumor [2]; IP 60 mg/kg/dose, Days 12-16): 3/5
T-C (human MX-1 mammary tumor [2]; [4]): >41.0 days
Tumor-Free-Surv/Total (human MX-1 mammary tumor [2]; [4]): 5/5
Median % ILS (dying mice only) (human MX-1 mammary tumor [1]; oral (gavage) 135 mg/kg/dose): +84%

COc1nc(C(Cl)(Cl)Cl)c(Cl)c(OC(=O)c2ccc(CCl)cc2)c1Cl [DM-CMB-PEN]
Median % ILS (dying mice only) (human MX-1 mammary tumor [1]; IP 90 mg/kg/dose): +73%
Tumor-Free-Surv/Total (human MX-1 mammary tumor [1]; IP 90 mg/kg/dose): 0/5

COC(=O)CCC(=O)Oc1c(Cl)c(OC)nc(C(Cl)(Cl)Cl)c1Cl [DM-CMP-PEN]
Tumor-Free-Surv/Total (human MX-1 mammary tumor [2]; IP 135 mg/kg/dose, Days 11-15): 3/5
Tumor-Free-Surv/Total (human MX-1 mammary tumor [2]; [3]): 2/5
Median % ILS (dying mice only) (human MX-1 mammary tumor [1]; IP 90 mg/kg/dose): +87%
Median % ILS (dying mice only) (human MX-1 mammary tumor [1]; oral (gavage) 90 mg/kg/dose): +76%

COc1nc(C(Cl)(Cl)Cl)c(Cl)c(OC(=O)C(Cl)Cl)c1Cl [DM-DCA-PEN]
Tumor-Free-Surv/Total (human MX-1 mammary tumor [2]; IP 135 mg/kg/dose, Days 12-16): 2/5
